Measurements from patent US11230538B2, “Herbicides” (SYNGENTA PARTICIPATIONS AG, priority 2016, dated 2022).

What was measured:
Assay type in all cases: in vivo
Lolium perenne (LOLPE) [1] = test: B2 Post-emergence herbicidal activity; set-up: key to Post-emergence herbicidal activity, LOLPE (damage score 0-5): 5=total damage to plant; 0=no damage to plant; details: post-emergence application, rate 1000 g/ha, evaluated after 13 days
Outline: (§1)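 Visual damage score (0 = none, 5 = total) taken 13 days after treatment. Seedlings had been cultivated 8 days in pots of standard soil before being sprayed with an aqueous solution of compound in acetone/water (50:50) containing 0.5% Tween 20.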

[2] = tested on: Echinochloa crus-galli (ECHCG); test: B2 Post-emergence herbicidal activity; set-up: key to Post-emergence herbicidal activity, ECHCG (damage score 0-5): 5=total damage to plant; 0=no damage to plant; details: post-emergence application, rate 1000 g/ha, evaluated after 13 days
Outline: as §1

[3] = tested on: Triticum aestivium (TRZAW); test: B1 Pre-emergence herbicidal activity; set-up: key: 5=total damage to plant; 0=no damage to plant; details: pre-emergence application, rate 1000 g/ha, evaluated after 13 days
Outline: (§2)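 Damage was rated visually on a 0–5 scale (0 no damage, 5 total damage) 13 days after treatment. Soil-sown seeds had been sprayed one day after sowing with an aqueous acetone/water (50:50) solution containing 0.5% Tween 20, then kept in a glasshouse at 24/16 °C, 14 h light, 65% humidity.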

Avena fatua (AVEFA) [4] = test: B1 Pre-emergence herbicidal activity; set-up: key: 5=total damage to plant; 0=no damage to plant; details: pre-emergence application, rate 1000 g/ha, evaluated after 13 days
Outline: as §2

[5] = tested on: Alopecurus myosuroides (ALOMY); test: B1 Pre-emergence herbicidal activity; set-up: key: 5=total damage to plant; 0=no damage to plant; details: pre-emergence application, rate 1000 g/ha, evaluated after 13 days
Outline: as §2

Setaria fabenr (SETFA) = test: B1 Pre-emergence herbicidal activity; set-up: key to Pre-emergence herbicidal activity, SETFA (damage score 0-5): 5=total damage to plant; 0=no damage to plant; details: pre-emergence application, rate 1000 g/ha, evaluated after 13 days
Outline: as §2

[6] = tested on: Triticum aestivium (TRZAW); test: B2 Post-emergence herbicidal activity; set-up: key: 5=total damage to plant; 0=no damage to plant; details: post-emergence application, rate 1000 g/ha, evaluated after 13 days
Outline: as §1

[7] = tested on: Alopecurus myosuroides (ALOMY); test: B2 Post-emergence herbicidal activity; set-up: key: 5=total damage to plant; 0=no damage to plant; details: post-emergence application, rate 1000 g/ha, evaluated after 13 days
Outline: as §1

Setaria fabenri (SETFA) = test: B2 Post-emergence herbicidal activity; set-up: key: 5=total damage to plant; 0=no damage to plant; details: post-emergence application, rate 1000 g/ha, evaluated after 13 days
Outline: as §1

[8] = tested on: Echinochloa crus-galli (ECHCG); test: B1 Pre-emergence herbicidal activity; set-up: key to Pre-emergence herbicidal activity, ECHCG (damage score 0-5): 5=total damage to plant; 0=no damage to plant; details: pre-emergence application, rate 1000 g/ha, evaluated after 13 days
Outline: as §2

Avena fatua (AVEFA) [9] = test: B2 Post-emergence herbicidal activity; details: post-emergence application, rate 1000 g/ha, evaluated after 13 days
Outline: as §1

Lolium perenne (LOLPE) [10] = test: B1 Pre-emergence herbicidal activity; set-up: key to Pre-emergence herbicidal activity, LOLPE (damage score 0-5): 5=total damage to plant; 0=no damage to plant; details: pre-emergence application, rate 1000 g/ha, evaluated after 13 days
Outline: as §2

Row | SMILES | Post-emergence herbicidal activity, LOLPE (damage score 0-5) (Lolium perenne (LOLPE) [1]) | Post-emergence herbicidal activity, ECHCG (damage score 0-5) [2] | Pre-emergence herbicidal activity, TRAZW (damage score 0-5) [3] | Pre-emergence herbicidal activity, AVEFA (damage score 0-5) (Avena fatua (AVEFA) [4]) | Pre-emergence herbicidal activity, ALOMY (damage score 0-5) [5] | Pre-emergence herbicidal activity, SETFA (damage score 0-5) (Setaria fabenr (SETFA)) | Post-emergence herbicidal activity, TRAZW (damage score 0-5) [6] | Post-emergence herbicidal activity, ALOMY (damage score 0-5) [7] | Post-emergence herbicidal activity, SETFA (damage score 0-5) (Setaria fabenri (SETFA)) | Pre-emergence herbicidal activity, ECHCG (damage score 0-5) [8] | Post-emergence herbicidal activity, AVEFA (damage score 0-5) (Avena fatua (AVEFA) [9]) | Pre-emergence herbicidal activity, LOLPE (damage score 0-5) (Lolium perenne (LOLPE) [10])
1 | COCCC(=O)Nc1ccc(-c2cncc(F)c2)nc1C(F)(F)F [Compound C24] | 4 | 5 | 0 | 4 | 1 | 5 | 1 | 1 | 5 | 4 | 4 | 1
2 | CCC(=O)Nc1ccc(-c2cncc(F)c2)nc1C#N [Compound C115] | 1 | 4 | 0 | 0 | 0 | 5 | 0 | 0 | 5 | 5 | 2 | 1
3 | Cc1ccsc1C(=O)Nc1ccc(-c2cncc(F)c2)nc1C(F)(F)F [Compound C51] | 1 | 2 | 0 | 0 | 0 | 4 | 0 | 0 | 4 | 3 | 2 | 0
4 | CCC(=O)N(CCC(F)F)c1ccc(-c2cncc(F)c2)nc1C(F)(F)F [Compound C62] | 2 | 5 | 0 | 2 | 0 | 4 | 1 | 1 | 5 | 3 | 4 | 1
5 | CC(C)C(=O)N(C)c1ccc(-c2cncc(F)c2)nc1C(F)(F)F [Compound C4, N-[6-(5-fluoro-3-pyridyl)-2-(trifluoromethyl)-3-pyridyl]-N,2-dimethyl-propanamide] | 5 | 4 | 0 | 1 | 0 | 1 | 1 | 1 | 3 | 4 | 4 | 5
6 | O=C1CCC(=O)N1c1ccc(-c2cncc(F)c2)nc1C(F)(F)F [Compound C67, 1-[6-(5-fluoro-3-pyridyl)-2-(trifluoromethyl)-3-pyridyl]pyrrolidine-2,5-dione] | 2 | 4 | 0 | 0 | 0 | 2 | 0 | 0 | 4 | 1 | 2 | 0
7 | O=C(O)CCC(=O)Nc1ccc(-c2cncc(F)c2)nc1C(F)(F)F [Compound C113, 4-[[6-(5-fluoro-3-pyridyl)-2-(trifluoromethyl)-3-pyridyl]amino]-4-oxo-butanoic acid] | 3 | 5 | 0 | 2 | 0 | 5 | 3 | 1 | 5 | 5 | 4 | 1
8 | O=CNc1ccc(-c2cncc(F)c2)nc1C(F)(F)F [Compound C112] | 3 | 4 | 0 | 2 | 1 | 4 | 1 | 0 | 1 | 3 | 3 | 1
